This note sets out measurements from US20120252773A1, “Method and composition for inhibiting cell proliferation and angiogenesis” (priority 2005, published 2012).

Experiment [1] deals with A549 human non small cell lung cancer tumors. In words: A549 NSCLC nude mouse xenograft model, tumor growth. Particulars: 30 days. The experiment is classed as in vivo. The method, then: The xenograft model was conducted using 8 weeks old female athymic nude mice supplied by Charles River Laboratories. After 4 days of quarantine, A549 human non small cell lung cancer cells (3×10^6 cells/mouse) were subcutaneously implanted in the right flanks of mice in a 100 μl of Matrigel/phosphate buffered saline mixture (1:1). Animals were observed daily for tumor growth. When tumors became palpable, we began to measure the tumors using the formula V=W×L×H×π/6, where W and L represent the shorter and longer diameters of the tumor, H the height of the tumor. When tumor volumes reached approximately 50 mm^3, animals were randomized into control and treatment groups of 10 mice each based on tumor volumes. Only the mice with tumor volumes closest to the mean value were used. On the day of randomization, animals began to receive drug treatment. Compound (2) and Tarceva (Erlotinib) were orally dosed via gavage once daily. Cisplatin and Paclitaxel were dosed via intraperitoneal injection once weekly.
After initiation of drug treatment, tumor volumes were measured twice weekly and body weights once weekly. The study was carried out for 30 days and unscheduled sacrifices were performed on animals with tumor volumes greater than 1500 mm^3 or tumors developing ulceration or loss of 20% of their original body weights. […]

In experiment [2] the target is T1, Human recombinant estrogen receptor-α (ER-α) (Homo sapiens, UniProt P03372).
T1 construct: purchased PanVera Corporation (Madison, Wis.)
T1 sequence (P03372 1-595): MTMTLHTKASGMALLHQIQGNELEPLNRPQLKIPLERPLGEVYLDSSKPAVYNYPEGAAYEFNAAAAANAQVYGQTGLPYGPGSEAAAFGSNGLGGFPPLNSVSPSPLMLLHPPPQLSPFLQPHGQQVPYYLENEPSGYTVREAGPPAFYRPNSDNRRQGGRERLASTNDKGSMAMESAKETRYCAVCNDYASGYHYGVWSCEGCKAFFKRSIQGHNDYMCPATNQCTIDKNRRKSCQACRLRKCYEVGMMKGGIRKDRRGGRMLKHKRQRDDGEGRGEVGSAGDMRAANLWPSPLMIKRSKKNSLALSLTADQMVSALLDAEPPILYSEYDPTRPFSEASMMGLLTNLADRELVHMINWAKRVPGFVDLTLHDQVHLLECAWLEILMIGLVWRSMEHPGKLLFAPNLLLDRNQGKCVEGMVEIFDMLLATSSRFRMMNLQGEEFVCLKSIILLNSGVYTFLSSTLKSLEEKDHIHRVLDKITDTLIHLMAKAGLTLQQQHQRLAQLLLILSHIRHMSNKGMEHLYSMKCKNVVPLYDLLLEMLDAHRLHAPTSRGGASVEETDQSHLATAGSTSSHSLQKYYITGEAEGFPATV
In words: Estrogen receptor binding assay, 3H-17β-estradiol displacement, ER-α. Particulars: 4° C. overnight. The method, then: Human recombinant estrogen receptor-α (ER-α) and estrogen receptor-β (ER-β) were obtained from PanVera Corporation (Madison, Wis.) to conduct the binding assay. To measure the binding affinity of (2), various concentrations of (2) or 17β-estradiol were incubated with either ER-α or ER-β receptor in the presence of a fixed amount of ^3H-17β-estradiol at 4° C. overnight. At the end of the incubation, the free- and bound-3H-estradiol were separated following the instructions provided by the manufacturer using hydroxylapatite.

For experiment [3], the system named is DU-145 Human Androgen-Independent Prostate Cancer Cells. The experiment can be described thus: Apoptosis by TUNEL assay in DU-145 cells. The experiment is classed as cell-based. The following applies: DU-145, 10 μM, 24 hours. The method, then:
DU-145 cells (ATCC) were treated with 10 μM (2) for 24 hours. Apoptosis was measured by the terminal deoxynucleotidyl transferase mediated dUTP nick end labeling (TUNEL) assay. This assay was conducted using the Apoptosis Detection Kit (Promega, Madison, Wis.) following the instructions provided by the manufacturer. Briefly, DU-145 cells were incubated with (2) for 24, 48, or 72 hours. At the end of incubation, cells were fixed with freshly prepared 4% methanol-free paraformaldehyde in PBS, washed, and then permeabilized in 0.2% Triton X-100 in PBS. The cells on the slides were then incubated with Tdt enzyme for 1 h at 37° C., stained with propidium iodide, and examined under a fluorescence microscope. Fragmented DNA was made visible with green fluorescence stain within the apoptotic cells.

SMILES strings stand for the structures.

As to `C[C@@H]1Cc2cc(O)ccc2C2CCC3(C)/C(=C/COCCN(C)C)CCC3C21` (stereo partly drawn) [Compound (2), (E)-3-Hydroxy-7α-methyl-21-[(2-dimethylamino)ethoxy]-19-norpregna-1,3,5(10),17(20)-tetraene], the “growth rate of A549 tumors” value in experiment [1] (10 mg/kg oral once daily) and in experiment [1] (20 mg/kg oral once daily) was “drastically reduced the growth rate” throughout. Moreover, the “binding affinity (relative to non-radiolabeled estradiol, 50% displacement of 3H-estradiol)” value in experiment [2] is 3. The “apoptosis, fragmented DNA (TUNEL)” value in experiment [3] was “quite a few pieces of fragmented DNA were evident”.
